In patent publication US7842685B2, “S1P1 receptor agonists and use thereof” (Amgen Inc., priority 2008, dated 2010):
pEC50: −log10 of the molar value. Where a name gives a salt, the structure may show the parent alone.

Target: T1, hS1P1 receptor (Homo sapiens, UniProt P21453)
T1 construct: host or cells: U2OS
Assay: hS1P1 receptor internalization assay (cell imaging-based, hS1P1-eGFP U2OS cells)
Settings: U2OS cell line expressing hS1P1-eGFP, compounds incubated at 37° C. for one hour; for Emax: 1 h, efficacy (Max), read-out: hS1P1 Receptor Internalization (biolimaging) Max (%); for pEC50: GFP-containing endosomes per cell (ArrayScan), read-out: hS1P1 Receptor Internalization (bioimaging) EC50 IP
Protocol: The activity of compounds of the invention was determined by a cell imaging-based assay measuring the degree of hS1P1 receptor internalization and a Ca^2+ mobilization assay measuring the level of S1P receptor activation. The receptor internalization assay was employed to determine the potency and efficacy of compounds on hS1P1 receptor, while Ca^2+ mobilization assay was used to determine selectivity among different S1P receptors and activity on S1P receptors from species such as rat, dog, and cyno. The hS1P1 receptor internalization assay was performed using a U2OS cell line expressing hS1P1-eGFP chimeric protein (Thermo Scientific, Soeborg, Denmark). Upon compound treatment, the hS1P1 receptor was internalized in cytoplasma and formed GFP-containing-endosomes. This event was detected by an automated microscope, ArrayScan (Thermo Scientific Cellomics, Pittsburg), and the degree of receptor internalization is quantitated by counting green fluorescent GFP-containing endosomes per cell. In this assay, hS1P1-eGFP expressing U2OS cells were starved in serum free media for two hours prior to compound treatment. Then compounds were incubated with the starved cells at 37° C. for one hour. Subsequently, compound-treated cells were fixed using 4% formaldehyde, and the nuclei were stained using Hoechst. Then the cells were imaged in ArrayScan. The potency and efficacy of the compounds were determined by plotting the number of green fluorescent GFP-containing endosomes per cell against corresponding compound concentration.

T1 sequence (P21453 whole entry): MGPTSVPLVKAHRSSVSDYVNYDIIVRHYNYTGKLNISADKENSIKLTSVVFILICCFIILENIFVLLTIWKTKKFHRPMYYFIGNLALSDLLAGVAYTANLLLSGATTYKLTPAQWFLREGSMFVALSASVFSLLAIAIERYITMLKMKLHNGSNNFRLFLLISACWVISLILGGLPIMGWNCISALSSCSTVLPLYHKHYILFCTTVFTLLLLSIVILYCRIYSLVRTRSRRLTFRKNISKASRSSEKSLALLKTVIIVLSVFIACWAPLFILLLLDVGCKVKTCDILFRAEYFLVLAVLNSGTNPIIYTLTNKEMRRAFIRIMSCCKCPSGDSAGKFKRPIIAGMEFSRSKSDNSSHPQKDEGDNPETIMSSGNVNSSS

Compound | Emax [%] | pEC50
CS(=O)(=O)NCCc1ccc(-c2nc3ccc(C4(c5ccccc5)CC4)nc3s2)c(F)c1 [Example 61, N-(2-(3-fluoro-4-(5-(1-phenylcyclopropyl)[1,3]thiazolo[5,4-b]pyridin-2-yl)phenyl)ethyl)methanesulfonamide] | 491 | 5.60
O=C(O)C1CN(Cc2ccc(-c3nc4ccc(C5(c6ccccn6)CC5)cc4s3)c(F)c2)C1 [Example 62, 1-((3-fluoro-4-(6-(1-(pyridine-2-yl)cyclopropyl)benzo[d]thiazol-2-yl)-phenyl)methyl)azetidine-3-carboxylic acid] | 98 | 5.43
Cc1cc(-c2nc3ccc(C4(c5ccccc5)CC4)nc3s2)cc(C)c1OC[C@H](O)CO [Example 67, (R)-3-(2,6-dimethyl-4-(5-(1-phenylcyclopropyl)thiazolo[5,4-b]pyridin-2-yl)phenoxy)propane-1,2-diol] | 125 | 7.15
O=C(O)[C@@H]1C[C@@H](Oc2ccc(-c3nc4ccc(C5(c6ccccc6)CC5)nc4s3)cc2)CN1 [Example 72, (2S,4R)-4-(4-(5-(1-phenylcyclopropyl)thiazolo[5,4-b]pyridin-2-yl)phenoxy)pyrrolidine-2-carboxylic acid] | 133 | 7.35
O=C(O)CC1CN(Cc2ccc(-c3nc4ccc(C5(c6ccccc6)CC5)nc4s3)c(F)c2)C1 [Example 79, 2-(1-(3-fluoro-4-(5-(1-phenylcyclopropyl)thiazolo[5,4-b]pyridin-2-yl)-benzyl)azetidin-3-yl)acetic acid] | 150 | 7.42
c1ccc(C2(c3ccc4nc(-c5ccc6c(c5)CCNC6)sc4n3)CC2)cc1 [Example 80, 5-(1-phenylcyclopropyl)-2-(1,2,3,4-tetrahydroisoquinolin-6-yl)thiazolo-[5,4-b]pyridine] | 148 | 6.25
O=C(O)CN1CCc2cc(-c3nc4ccc(C5(c6ccccc6)CC5)nc4s3)ccc2C1 [Example 82, 2-(6-(5-(1-phenylcyclopropyl)thiazolo[5,4-b]pyridin-2-yl)-3,4-dihydroisoquinolin-2(1H)-yl)acetic acid] | 106 | 7.34
O=C(O)COCc1ccc(-c2nc3ccc(C4(c5ccccc5)CC4)nc3s2)c(F)c1 [Example 85, 2-(3-fluoro-4-(5-(1-phenylcyclopropyl)thiazolo[5,4-b]pyridin-2-yl)benzyloxy)acetic acid] | 88 | 5.90
C[C@H](CC(=O)O)NCc1ccc(-c2nc3ccc(C4(c5ccccc5)CC4)nc3s2)c(F)c1 [Example 91, (R)-3-(3-fluoro-4-(5-(1-phenylcyclopropyl)thiazolo[5,4-b]pyridin-2-yl)benzylamino)butanoic acid hydrochloride] | 131 | 7.49
O=C(O)c1cn(Cc2ccc(-c3nc4ccc(C5(c6ccccc6)CC5)nc4s3)c(F)c2)cn1 [Example 96, 1-(3-fluoro-4-(5-(1-phenylcyclopropyl)thiazolo[5,4-b]pyridin-2-yl)benzyl)-1H-imidazole-4-carboxylic acid hydrochloride] | 105 | 7.96
O=C(O)c1cnn(Cc2ccc(-c3nc4ccc(C5(c6ccccc6)CC5)nc4s3)c(F)c2)c1 [Example 98, 1-(3-fluoro-4-(5-(1-phenylcyclopropyl)thiazolo[5,4-b]pyridin-2-yl)benzyl)-1H-pyrazole-4-carboxylic acid hydrochloride] | 93 | 7.35
O=C(c1ccc(-c2nc3ccc(C4(c5ccccc5)CC4)nc3s2)c(F)c1)N1CCC1 [Example 105, 2-(4-(1-azetidinylcarbonyl)-2-fluorophenyl)-5-(1-phenylcyclopropyl)-[1,3]thiazolo[5,4-b]pyridine] | 63 | 5.48
CN(CCO)C(=O)c1ccc(-c2nc3ccc(C4(c5ccccc5)CC4)nc3s2)c(F)c1 [Example 109, 3-fluoro-N-(2-hydroxyethyl)-N-methyl-4-(5-(1-phenylcyclopropyl)-[1,3]thiazolo[5,4-b]pyridin-2-yl)benzamide] | 41 | 5.63
O=C(NC1CC1)c1ccc(-c2nc3ccc(C4(c5ccccc5)CC4)nc3s2)c(F)c1 [Example 113, N-cyclopropyl-3-fluoro-4-(5-(1-phenylcyclopropyl)[1,3]thiazolo[5,4-b]pyridin-2-yl)benzamide] | 55 | 6.14
O=C(Nc1ccc(-c2nc3ccc(C4(c5ccccc5)CC4)nc3s2)c(F)c1)C(F)(F)F [Example 118, 2,2,2-trifluoro-N-(3-fluoro-4-(5-(1-phenylcyclopropyl)[1,3]thiazolo[5,4-b]pyridin-2-yl)phenyl)acetamide] | 111 | 6.53
CNc1ccc(-c2nc3ccc(C4(c5ccccc5)CC4)nc3s2)c(F)c1 [Example 121, 3-fluoro-N-methyl-4-(5-(1-phenylcyclopropyl)[1,3]thiazolo[5,4-b]pyridin-2-yl)aniline] | 125 | 6.11
O=C(O)CCS(=O)(=O)Nc1ccc(-c2nc3ccc(C4(c5ccccc5)CC4)nc3s2)c(F)c1 [Example 124, 3-((3-fluoro-4-(5-(1-phenylcyclopropyl)[1,3]thiazolo[5,4-b]pyridin-2-yl)phenyl)sulfamoyl)propanoic acid] | 131 | 6.02
N[C@H](CC(=O)O)C(=O)Nc1ccc(-c2nc3ccc(C4(c5ccccc5)CC4)nc3s2)c(F)c1 [Example 126, N-(3-fluoro-4-(5-(1-phenylcyclopropyl)[1,3]thiazolo[5,4-b]pyridin-2-yl)phenyl)-D-alpha-asparagine TFA salt] | 100 | 9.22
O=C(O)[C@H]1C[C@@H](Nc2ccc(-c3nc4ccc(C5(c6ccccc6)CC5)nc4s3)c(F)c2)C1 [Example 130, cis-3-((3-fluoro-4-(5-(1-phenylcyclopropyl)[1,3]thiazolo[5,4-b]pyridin-2-yl)phenyl)amino)cyclobutanecarboxylic acid] | 89 | 7.94
O=C(O)C[C@H](O)C(=O)Nc1ccc(-c2nc3ccc(C4(c5ccccc5)CC4)nc3s2)c(F)c1 [Example 133, (3S)-4-(3-fluoro-4-(5-(1-phenylcyclopropyl)thiazolo[5,4-b]pyridin-2-yl)phenylamino)-3-hydroxy-4-oxobutanoic acid] | 133 | 8.66
c1ccc(C2(c3ccc4nc(-c5ccc6[nH]ccc6c5)sc4n3)CC2)cc1 [Example 136, 2-(1H-indol-5-yl)-5-(1-phenylcyclopropyl)thiazolo[5,4-b]pyridine] | 101 | 6.72
CC(=O)NCCc1ccc(-c2nc3ccc(C4(c5ccccc5)CC4)nc3s2)c(F)c1 [Example 150, N-(2-(3-fluoro-4-(5-(1-phenylcyclopropyl)[1,3]thiazolo[5,4-b]pyridin-2-yl)phenyl)ethyl)acetamide] | 155 | 6.73
